The subject of assay [1] is phosphorylation of Akt at Serine 473. The assay is described as follows: pAkt AlphaScreen (U87 cell). The following applies: Homo sapiens, U-87 MG; U87 MG cells, pAkt Ser473; average. Type of assay: cell-based. How it is done: pAkt Alphascreen (U87 Cell)
The pAkt AlphaScreen® assay (PerkinElmer, Waltham, Mass.) determines whether there is phosphorylation of Akt at Serine 473 by recruitment of a phosphospecific antibody. This assay was performed using U87 MG cells. The U87 growth media consists of MEM (Gibco, Carlsbad, Calif.) supplemented with 10% FBS (Gibco,), 1× Non-Essential Amino Acids (Gibco,) and 1× Penicillin/Streptomycin/Glutamine (Gibco). The cells were maintained weekly using 0.05% Trypsin (Gibco) and replated in 150 mm TC-Treated Culture Dishes (Corning, Corning, N.Y.).
The first day of the assay, the adherent cells were trypsinized, media was added to the loose cells and cells were mixed to a homogenous mixture. 0.5 ml of the homogenous mixture was counted on the Beckman Coulter® Vi-CELL™ XR (Fullerton, Calif.). 50 frames of cells were counted and the number of viable cells was determined. The cells were then diluted to 0.25 million cells per ml, and centrifuged at 200 rcf for 5 minutes. The media was removed and the cells were reconstituted in fresh media for plating. The cells were plated at 20 μl per well on the PerkinElmer® FlexDrop PLUS in Low Volume 384 Well White Tissue Culture Plates (Corning) with a final cell density of 5K cells per well. The plates were incubated overnight at 37° Celsius, 5% CO2.
On the second day, the compound plates were prepared, the cells were treated with compound and the pAkt reaction mix was added to the cell lysate. 384 well compound plates were prepared containing 1 μl of compound per well starting at 5 mM and diluted 1:2 across the row, resulting in a 22 well serial dilution. 39 μl of growth media was added to the compound plate in rows 1-22 using the PerkinElmer® FlexDrop PLUS resulting in a DMSO concentration of 2.5%. The cell plates and diluted compound plates were put onto the VELOCITY11™ VPREP™ 384 ST where the compound plate was mixed and 5 μl of serially diluted compound or controls was added to the cell plate. The final concentration of the compounds was 25 μM serially diluted to 11.9 pM in 0.5% DMSO. The cell plates were then incubated with compound for two hours at 37° Celsius, 5% CO2. After two hours, the media in the cell plates was aspirated using the BioTek® ELx405HT plate washer (Winooski, Vt.) removing the majority of media and compound without disturbing the adherent U87 cells. The following assay reagents are components of the SureFire® Akt (Ser 473) Phosphorylation 50K Point Kit (TGR BioSciences, Adelaide, Austalia) and an IgG Detection Kit (PerkinElmer, Waltham, Mass.). 5 μl of 1× Lysis Buffer was added to each well using the PerkinElmer® FlexDrop PLUS. The plates were then incubated at room temperature on a shaker for ten minutes. The AlphaScreen® reaction was prepared under low light conditions (subdued or green light) including p-Akt (Ser 473) Reaction Buffer, Dilution Buffer, Activation Buffer, Acceptor Beads and Donor Beads at a ratio of 40:20:10:1:1 respectively. The AlphaScreen® reaction was added to the cell lysate at 6 μl per well using the PerkinElmer® FlexDrop PLUS. The plates were placed in a humid environment to reduce edge effects and incubated overnight at room temperature with restricted air flow in the dark.
On the final day of the experiment, the plates were read on the PerkinElmer® EnVision™ 2103 Multilable Reader using the standard AlphaScreen® readout. The POC is calculated and the data is analyzed to report the IC50 IP for pAkt at Serine 473.
Activity data for the compounds tested in the PI3K cell based Akt assay is provided in Table 2 under the column heading U87
(In general: Bead proximity is the source of the signal in Alpha formats.)

Another assay concerns the target T1, mTOR (Homo sapiens, UniProt P42345).
T1 construct: purchased Invitrogen (Carlsbad, Calif.)
The assay is described as follows: In vitro mTOR assay (Lanthascreen). Type of assay: biochemical. The following applies: average if run more than once. In a few lines:
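mTOR activity measured by TR-FRET as Thr46 phosphorylation of GFP-4E-BP1, detected with Tb-labelled anti-phospho-4E-BP1 [T46] antibody after EDTA stop. Final 50 ng/mL mTOR, 400 nM GFP-4E-BP1, 7 μM ATP in HEPES pH 7.5 with 10 mM MnCl2; 1 h, room temperature. 10-point 1:3 compound series.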

The target of another assay is T2, PI3Kα (Homo sapiens, UniProt P42336).
T2 construct: Full length p110 subunits of PI3K α, β and δ, N-terminally labeled with polyHis tag; polyHis (N); made in house; host or cells: Sf9 insect cells (baculovirus)
T2 sequence (P42336 whole entry): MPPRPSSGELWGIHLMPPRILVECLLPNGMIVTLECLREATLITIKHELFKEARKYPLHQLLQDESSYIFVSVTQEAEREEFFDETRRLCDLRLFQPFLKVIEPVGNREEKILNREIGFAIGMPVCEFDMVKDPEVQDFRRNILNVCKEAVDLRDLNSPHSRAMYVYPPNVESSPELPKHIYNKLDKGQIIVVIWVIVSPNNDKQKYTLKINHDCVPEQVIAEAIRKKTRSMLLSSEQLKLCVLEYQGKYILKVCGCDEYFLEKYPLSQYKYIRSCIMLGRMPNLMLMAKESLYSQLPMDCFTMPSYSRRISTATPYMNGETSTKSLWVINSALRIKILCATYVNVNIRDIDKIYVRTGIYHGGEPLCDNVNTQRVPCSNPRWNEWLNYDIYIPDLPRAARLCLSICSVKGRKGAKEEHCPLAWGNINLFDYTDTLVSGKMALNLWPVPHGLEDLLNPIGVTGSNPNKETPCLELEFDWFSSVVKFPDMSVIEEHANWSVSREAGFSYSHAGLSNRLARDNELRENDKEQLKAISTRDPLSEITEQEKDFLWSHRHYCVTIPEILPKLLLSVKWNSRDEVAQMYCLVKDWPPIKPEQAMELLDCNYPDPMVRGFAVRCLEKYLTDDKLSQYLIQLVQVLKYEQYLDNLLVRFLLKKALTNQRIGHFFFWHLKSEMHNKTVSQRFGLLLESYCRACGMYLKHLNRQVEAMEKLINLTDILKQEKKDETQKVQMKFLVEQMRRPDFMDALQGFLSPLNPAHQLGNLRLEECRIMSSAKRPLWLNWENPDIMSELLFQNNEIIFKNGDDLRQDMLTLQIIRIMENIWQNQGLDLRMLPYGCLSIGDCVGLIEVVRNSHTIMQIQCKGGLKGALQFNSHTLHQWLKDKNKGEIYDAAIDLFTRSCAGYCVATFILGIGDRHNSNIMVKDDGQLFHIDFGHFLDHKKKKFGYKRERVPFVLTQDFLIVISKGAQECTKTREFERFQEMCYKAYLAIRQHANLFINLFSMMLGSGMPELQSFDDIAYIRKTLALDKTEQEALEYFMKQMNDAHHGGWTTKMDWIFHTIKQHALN
T2 sequence (P27986 whole entry partner): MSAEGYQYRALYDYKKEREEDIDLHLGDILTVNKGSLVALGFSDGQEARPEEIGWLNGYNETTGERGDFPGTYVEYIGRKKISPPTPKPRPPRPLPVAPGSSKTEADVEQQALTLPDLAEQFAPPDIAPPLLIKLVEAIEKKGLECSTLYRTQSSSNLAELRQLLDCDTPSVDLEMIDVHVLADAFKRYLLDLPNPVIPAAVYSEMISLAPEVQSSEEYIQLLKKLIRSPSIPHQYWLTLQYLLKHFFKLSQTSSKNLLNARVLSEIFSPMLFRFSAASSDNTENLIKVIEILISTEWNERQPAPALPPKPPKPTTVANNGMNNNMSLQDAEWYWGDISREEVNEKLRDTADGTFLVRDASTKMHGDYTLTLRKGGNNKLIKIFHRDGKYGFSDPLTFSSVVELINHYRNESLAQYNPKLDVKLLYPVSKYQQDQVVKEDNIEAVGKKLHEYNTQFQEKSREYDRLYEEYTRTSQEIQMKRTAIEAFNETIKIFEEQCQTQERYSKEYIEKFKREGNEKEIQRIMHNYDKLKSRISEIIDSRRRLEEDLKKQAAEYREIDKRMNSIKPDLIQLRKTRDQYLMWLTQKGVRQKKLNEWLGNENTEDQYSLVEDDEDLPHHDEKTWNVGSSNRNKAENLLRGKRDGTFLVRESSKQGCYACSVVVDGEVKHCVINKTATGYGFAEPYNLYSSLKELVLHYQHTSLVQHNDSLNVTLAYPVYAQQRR
The assay is described as follows: In vitro PI3K AlphaScreen assay. The conditions noted are these: average if run more than once. Type of assay: biochemical.

T1 sequence (P42345 1360-2549 limits assumed): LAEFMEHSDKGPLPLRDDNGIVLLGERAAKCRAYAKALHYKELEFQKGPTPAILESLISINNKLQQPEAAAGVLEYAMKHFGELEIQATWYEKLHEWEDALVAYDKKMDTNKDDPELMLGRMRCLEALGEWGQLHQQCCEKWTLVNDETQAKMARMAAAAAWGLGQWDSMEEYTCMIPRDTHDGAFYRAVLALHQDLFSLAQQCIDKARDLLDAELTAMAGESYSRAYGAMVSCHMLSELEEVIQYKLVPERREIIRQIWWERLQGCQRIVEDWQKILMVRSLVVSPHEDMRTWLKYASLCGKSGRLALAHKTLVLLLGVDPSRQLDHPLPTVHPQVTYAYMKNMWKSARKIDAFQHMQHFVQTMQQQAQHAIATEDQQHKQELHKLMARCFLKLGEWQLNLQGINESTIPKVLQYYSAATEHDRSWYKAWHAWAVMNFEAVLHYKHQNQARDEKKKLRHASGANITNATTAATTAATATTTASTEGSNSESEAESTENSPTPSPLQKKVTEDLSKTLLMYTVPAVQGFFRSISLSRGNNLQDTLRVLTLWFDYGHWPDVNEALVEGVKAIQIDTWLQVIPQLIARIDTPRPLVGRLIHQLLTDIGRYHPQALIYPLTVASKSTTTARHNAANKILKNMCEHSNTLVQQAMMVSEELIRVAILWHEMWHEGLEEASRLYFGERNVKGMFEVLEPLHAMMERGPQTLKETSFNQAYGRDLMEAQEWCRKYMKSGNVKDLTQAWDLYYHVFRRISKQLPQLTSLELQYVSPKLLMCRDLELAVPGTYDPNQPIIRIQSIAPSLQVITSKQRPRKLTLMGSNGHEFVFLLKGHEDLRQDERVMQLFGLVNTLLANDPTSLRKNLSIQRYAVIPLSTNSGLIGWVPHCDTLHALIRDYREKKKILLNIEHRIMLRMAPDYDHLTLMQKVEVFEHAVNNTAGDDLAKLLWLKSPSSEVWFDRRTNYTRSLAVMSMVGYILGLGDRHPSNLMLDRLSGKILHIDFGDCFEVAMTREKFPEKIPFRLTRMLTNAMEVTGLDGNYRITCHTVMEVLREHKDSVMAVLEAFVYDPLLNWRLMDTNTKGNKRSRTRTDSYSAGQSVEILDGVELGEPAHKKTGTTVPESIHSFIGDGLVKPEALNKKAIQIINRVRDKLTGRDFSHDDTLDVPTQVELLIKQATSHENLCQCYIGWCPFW

By IC50 is commonly meant the point on the concentration scale where inhibition reaches its midpoint. A lower IC50 goes with greater potency in that assay. The Ki is a measure of affinity in units of concentration, obtained from inhibition or displacement. In the case of `CN(C)S(=O)(=O)Nc1cc(N2CCc3nccc(N4CCOCC4)c3C2)cnc1Cl` [Example 136, N′-(2-Chloro-5-(4-(4-morpholinyl)-7,8-dihydro-1,6-naphthyridin-6(5H)-yl)-3-pyridinyl)-N,N-dimethylsulfamide], the IC50 in assay [1] came out at 0.289 µM; on mTOR it was 0.065 µM. On PI3Kα, this compound showed a Ki of 0.111 µM.
The matching figures for `COC(C)(C)CNc1ccnc2ccc(-c3cnc(Cl)c(NS(C)(=O)=O)c3)cc12` [Example 79, N-(2-chloro-5-(4-((2-methoxy-2-methylpropyl)amino)-6-quinolinyl)-3-pyridinyl)methanesulfonamide]: 2.83 µM, 0.363 µM and 0.0823 µM.
The matching figures for `COc1ccc(OC)c(CNc2ccnc3ccc(-c4cnc(Cl)c(NS(C)(=O)=O)c4)cc23)c1` [Example 87, N-(2-chloro-5-(4-((2,5-dimethoxybenzyl)amino)-6-quinolinyl)-3-pyridinyl)methanesulfonamide]: 1.42 µM, 0.295 µM and 0.0332 µM.
The matching figures for `Cc1cc(-c2ccnc3ccc(-c4cnc(Cl)c(NS(C)(=O)=O)c4)cc23)ccn1` [Example 105, N-(2-chloro-5-(4-(2-methyl-4-pyridinyl)-6-quinolinyl)-3-pyridinyl)methanesulfonamide]: 0.0085 µM, 0.0015 µM and 0.0015 µM.
As for `CN(Cc1cccc(F)c1)c1ccnc2ccc(-c3cnc(Cl)c(NS(C)(=O)=O)c3)cc12` [Example 85, N-(2-chloro-5-(4-((3-fluorobenzyl)(methyl)amino)-6-quinolinyl)-3-pyridinyl)methanesulfonamide], the results for the IC50 (in assay [1]; at mTOR) were 1.66 µM and 0.0621 µM, respectively. On PI3Kα, the affinity, expressed as Ki, was 0.0158 µM.
The matching figures for `C[C@H]1CN(c2ccnc3ccc(-c4cnc(Cl)c(NS(C)(=O)=O)c4)cc23)C[C@H](C)O1` [Example 109, N-(2-chloro-5-(4-((2S,6S)-2,6-dimethyl-4-morpholinyl)-6-quinolinyl)-3-pyridinyl)methanesulfonamide]: 0.0214 µM, 0.0137 µM and 0.0032 µM.
As to `CN(C)S(=O)(=O)Nc1cc(-c2ccc3nccc(Cl)c3c2)cnc1Cl` [Example 125, N′-(2-chloro-5-(4-chloro-6-quinolinyl)-3-pyridinyl)-N,N-dimethylsulfamide], the 50% inhibitory concentration (IC50) is 0.723 µM in assay [1] and 0.0077 µM against mTOR. On PI3Kα, this compound came in with a Ki of 0.0033 µM.
For `COc1cc(-c2ccnc3ccc(-c4cnc(Cl)c(NS(C)(=O)=O)c4)cc23)ccn1` [Example 106, N-(2-chloro-5-(4-(2-methoxy-4-pyridinyl)-6-quinolinyl)-3-pyridinyl)methanesulfonamide], in that order: 0.0259 µM, 0.0034 µM and 0.0019 µM.
As for `O=S(=O)(Nc1cc(-c2ccc3nccc(OC4CCSC4)c3c2)cnc1Cl)c1ccc(F)cc1` (stereo not drawn) [Example 108, N-(2-chloro-5-(4-(tetrahydro-3-thiophenyloxy)-6-quinolinyl)-3-pyridinyl)-4-fluorobenzenesulfonamide], the IC50 came to 0.306 µM in assay [1] and 0.0079 µM at mTOR. Moreover, the Ki on PI3Kα came out at 0.0023 µM.
For `CN(C)S(=O)(=O)Nc1cc(-c2ccc3nccc(N4CCOCC4)c3c2)cnc1Cl` [Example 122, N′-(2-Chloro-5-(4-(4-morpholinyl)-6-quinolinyl)-3-pyridinyl)-N,N-dimethylsulfamide], in that order: 0.0163 µM, 0.0182 µM and 0.0065 µM.
The matching figures for `C[C@@H]1CN(c2ccnc3ccc(-c4cnc(Cl)c(NS(C)(=O)=O)c4)cc23)C[C@@H](C)O1` [Example 110, N-(2-chloro-5-(4-((2R,6R)-2,6-dimethyl-4-morpholinyl)-6-quinolinyl)-3-pyridinyl)methanesulfonamide]: 0.0141 µM, 0.0051 µM and 0.0063 µM.
As for `CS(=O)(=O)Nc1cc(-c2ccc3nccc(NC4CCNCC4)c3c2)cnc1Cl` [Example 88, N-(2-chloro-5-(4-(4-piperidinylamino)-6-quinolinyl)-3-pyridinyl)methanesulfonamide], the IC50 in assay [1] turned out to be 6.84 µM; against mTOR, 1.77 µM. In addition, the affinity on PI3Kα, expressed as Ki, was 0.161 µM.
For `CN(C)S(=O)(=O)Nc1cc(-c2ccc3ncc(=O)n(-c4cccc(C(F)(F)F)c4)c3c2)cnc1Cl` [Example 133, N-(2-chloro-5-(3-oxo-4-(3-(trifluoromethyl)phenyl)-3,4-dihydroquinoxalin-6-yl)pyridin-3-yl)dimethylaminosulfonamide], in that order: 0.0094 µM, 0.0005 µM and 0.0023 µM.
For `O=S(=O)(Nc1cc(-c2ccc3c(c2)OCCO3)cnc1Cl)c1ccc(F)cc1` [Example 128, N-(2-Chloro-5-(2,3-dihydrobenzo[b][1,4]dioxin-6-yl)pyridin-3-yl)-4-fluorobenzenesulfonamide], in that order: 20.4 µM, 0.0527 µM and 0.0333 µM.
The matching figures for `CN(C)c1ccc(-c2ccnc3ccc(-c4cnc(Cl)c(NS(=O)(=O)c5ccc(F)cc5)c4)cc23)cc1` [Example 102, N-(2-chloro-5-(4-(4-(dimethylamino)phenyl)-6-quinolinyl)-3-pyridinyl)-4-fluorobenzenesulfonamide]: 0.0641 µM, 0.0153 µM and 0.0013 µM.
In the case of `CS(=O)(=O)Nc1cc(-c2ccc3nccc(-c4cccnc4)c3c2)cnc1-c1cccnc1` [Example 117, N-(5-(4-(Pyridin-3-yl)quinolin-6-yl)-2,3′-bipyridin-3-yl)methanesulfonamide], the concentration for half-maximal inhibition (IC50) is 0.255 µM in assay [1] and 0.0015 µM on mTOR. The same compound came in with a Ki on PI3Kα of 0.0053 µM.
As for `COCCN(C)S(=O)(=O)Nc1cc(-c2ccc3nccc(N4CCOCC4)c3c2)cnc1Cl` [Example 123, N′-(2-Chloro-5-(4-(4-morpholinyl)-6-quinolinyl)-3-pyridinyl)-N-(2-methoxyethyl)-N-methylsulfamide], the IC50 in assay [1] came out at 0.037 µM; on mTOR, 0.0169 µM. For the same compound, the Ki at PI3Kα amounted to 0.0054 µM.
For `COCCN(C)S(=O)(=O)Nc1cc(-c2ccc3ncc(=O)n(-c4cccc(C(F)(F)F)c4)c3c2)cnc1Cl` [Example 134, N-(2-Chloro-5-(3-oxo-4-(3-(trifluoromethyl)phenyl)-3,4-dihydroquinoxalin-6-yl)pyridin-3-yl) 2-methoxy-N-methylethanamino sulfonamide], in that order: 0.0283 µM, 0.0042 µM and 0.0185 µM.
For `CS(=O)(=O)Nc1cc(-c2ccc3ncc(N4CCOCC4)nc3c2)cnc1Cl` [Example 92, N-(2-chloro-5-(3-(4-morpholinyl)-6-quinoxalinyl)-3-pyridinyl)methanesulfonamide], in that order: 0.084 µM, 0.0283 µM and 0.0028 µM.
The matching figures for `COc1ncc(-c2ccc3nccc(N4CCOCC4)c3c2)cc1NS(C)(=O)=O` [Example 119, N-(2-Methoxy-5-(4-morpholinoquinolin-6-yl)pyridin-3-yl)methanesulfonamide]: 0.0448 µM, 0.0176 µM and 0.0047 µM.

Values taken from patent US8415376B2, “Inhibitors of PI3 kinase” (Amgen Inc., priority 2008, dated 2013).
